Earlier results on one compound are cited in US4540572A, “Gel-like ointment containing indometacin” (Mepha AG, priority 1983, dated 1985).

This series has as its system human skin. To be noted: from the conventional ointment bases.

As for `COc1ccc2c(c1)c(CC(=O)O)c(C)n2C(=O)c1ccc(Cl)cc1` [indometacin], the “absorption through the human skin” value is “lack of its absorption”.
